Data published in ChEMBL document CHEMBL1201862, “PubChem BioAssay data set” (2004).
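Results reflect a 48-hour exposure of cells in 96-well plates to compound at five concentrations. The concentration for 50% growth inhibition is given as GI50.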 Calls of active or inactive are those of the source. Rule as the data show it: active = GI50 up to about 1.1 µM and inactive = higher.

Columns and labels:
Assay in all cases: NCI anticancer screen, dose series, 48 h
ACHN = system: ACHN
KM12 = system: KM12
SK-MEL-5 = system: SK-MEL-5
RXF 393 = system: RXF 393
SF-268 = system: SF-268
M19-MEL = system: M19-MEL
K562 = system: K562
UO-31 = system: UO-31
SW-620 = system: SW-620
OVCAR-5 = system: OVCAR-5
SF-539 = system: SF-539
UACC-257 = system: UACC-257
HOP-62 = system: HOP-62
SK-MEL-2 = system: SK-MEL-2
HOP-92 = system: HOP-92
MDA-N = system: MDA-N
T47D = system: T47D
MDA-MB-435 = system: MDA-MB-435
BT-549 = system: BT-549
MDA-MB-231 = system: MDA-MB-231

Measured: GI50

Cn1c2c(c3ccccc31)C1CCCCCCC1C1C(=O)OC(=O)C21 (stereo not drawn)
inactive: ACHN 56 µM | KM12 38.9 µM | SK-MEL-5 35.2 µM | RXF 393 21.2 µM | SF-268 45.2 µM | M19-MEL 37.4 µM | K562 31.3 µM | UO-31 > 100 µM | SW-620 32.4 µM | OVCAR-5 > 100 µM | SF-539 39.8 µM

OC12c3ccccc3C3CCC4(OCCO4)C3C1c1ccccc12 (stereo not drawn)
inactive: ACHN > 100 µM | KM12 > 100 µM | SK-MEL-5 > 100 µM | UACC-257 71.9 µM | RXF 393 39.9 µM | SF-268 > 100 µM | M19-MEL > 100 µM | HOP-62 > 100 µM | SK-MEL-2 > 100 µM | K562 49.8 µM | UO-31 > 100 µM | SW-620 > 100 µM | OVCAR-5 > 100 µM | SF-539 > 100 µM

O=c1sc(-c2nc3ccccc3[nH]2)c(/N=C/c2ccccc2)n1-c1ccccc1
inactive: ACHN 65.2 µM | KM12 73.3 µM | SK-MEL-5 29.9 µM | UACC-257 > 100 µM | RXF 393 62.4 µM | SF-268 91.4 µM | M19-MEL 94.2 µM | HOP-62 27.9 µM | SK-MEL-2 63 µM | K562 75 µM | UO-31 > 100 µM | SW-620 > 100 µM | OVCAR-5 > 100 µM | SF-539 26.3 µM

O=C(/C=C/c1ccco1)N1CCN(Cc2ccccc2)CC1
inactive: ACHN > 100 µM | KM12 > 100 µM | SK-MEL-5 > 100 µM | UACC-257 > 100 µM | SF-268 > 100 µM | M19-MEL > 100 µM | HOP-62 > 100 µM | UO-31 96.8 µM | SW-620 > 100 µM | OVCAR-5 > 100 µM | HOP-92 > 100 µM | SF-539 > 100 µM

O=C1Cc2nc(CO)c(CO)c(CO)c2CO1
inactive: ACHN > 100 µM | KM12 > 100 µM | SK-MEL-5 > 100 µM | UACC-257 > 100 µM | SF-268 > 100 µM | M19-MEL > 100 µM | HOP-62 > 100 µM | SK-MEL-2 > 100 µM | K562 > 100 µM | UO-31 > 100 µM | SW-620 > 100 µM | OVCAR-5 > 100 µM | HOP-92 > 100 µM | SF-539 > 100 µM

CC1C(=O)O[C@H]2C1CC[C@@]1(C)[C@H](O)CC[C@@]13C[C@]2(O)OO3 (stereo partly drawn)
inactive: ACHN > 100 µM | SK-MEL-5 > 100 µM | UACC-257 > 100 µM | SF-268 > 100 µM | M19-MEL > 100 µM | HOP-62 > 100 µM | K562 > 100 µM | UO-31 > 100 µM | SW-620 > 100 µM | OVCAR-5 > 100 µM | HOP-92 > 100 µM

COc1ccc(CNc2cnc3ccc(N)cc3n2)cc1OC
inactive: ACHN > 100 µM | KM12 > 100 µM | SK-MEL-5 > 100 µM | UACC-257 > 100 µM | SF-268 > 100 µM | M19-MEL 64.3 µM | HOP-62 > 10 µM | SK-MEL-2 > 100 µM | K562 > 100 µM | UO-31 79.6 µM | SW-620 > 100 µM | OVCAR-5 > 100 µM | SF-539 > 100 µM

COC(=O)NCCc1n[nH]c2c1C(=O)C=C(Nc1ccccc1OC)C2=O
inactive: MDA-N 18.1 µM | ACHN 38.6 µM | KM12 24.8 µM | SK-MEL-5 13.7 µM | UACC-257 17 µM | RXF 393 94 µM | SF-268 45.7 µM | T47D 30.1 µM | HOP-62 83.4 µM | SK-MEL-2 22.2 µM | MDA-MB-435 17.1 µM | K562 30 µM | BT-549 25 µM | UO-31 42.2 µM | SW-620 20.8 µM | OVCAR-5 61.4 µM | HOP-92 41.7 µM | SF-539 17.5 µM | MDA-MB-231 27 µM

CN(C)C(=S)NC(=S)Nc1ccc2ccccc2c1
inactive: MDA-N 12.9 µM | ACHN 18.6 µM | KM12 12.4 µM | SK-MEL-5 7.18 µM | UACC-257 8.95 µM | RXF 393 18.4 µM | SF-268 10.3 µM | T47D 9.55 µM | HOP-62 18.4 µM | SK-MEL-2 13.9 µM | MDA-MB-435 18.8 µM | K562 2.65 µM | BT-549 16 µM | UO-31 16.1 µM | SW-620 9.89 µM | OVCAR-5 21.2 µM | HOP-92 17 µM | SF-539 15.1 µM | MDA-MB-231 20 µM

CC(=O)c1ccc(N2C(=O)C3c4[nH]c5ccccc5c4C4CCC(C(C)(C)C)CC4C3C2=O)cc1 (stereo not drawn)
inactive: ACHN 28.3 µM | SK-MEL-5 25.6 µM | UACC-257 35.2 µM | RXF 393 17.9 µM | SF-268 17.3 µM | M19-MEL 19.2 µM | HOP-62 19.5 µM | K562 35.7 µM | UO-31 43.5 µM | SW-620 21.7 µM | HOP-92 20.8 µM | SF-539 20.3 µM

O=C1CC(NC2CC(=O)c3c(Br)sc(Br)c32)c2c(Br)sc(Br)c21 (stereo not drawn)
inactive: MDA-N 2.06 µM | ACHN 2.39 µM | KM12 1.99 µM | SK-MEL-5 5.96 µM | UACC-257 2.03 µM | RXF 393 3.38 µM | SF-268 11.7 µM | T47D 2.46 µM | HOP-62 2.99 µM | SK-MEL-2 3.51 µM | MDA-MB-435 3.72 µM | K562 2.55 µM | BT-549 14.1 µM | UO-31 2.24 µM | SW-620 2.08 µM | OVCAR-5 20.2 µM | HOP-92 6 µM | SF-539 1.27 µM | MDA-MB-231 3.42 µM

C/C(=N\NC(=O)CC(=O)Nc1ccc(C)cc1)c1cc2ccccc2oc1=O
inactive: ACHN > 100 µM | KM12 > 100 µM | SK-MEL-5 > 100 µM | UACC-257 > 100 µM | RXF 393 89.1 µM | M19-MEL > 100 µM | HOP-62 > 100 µM | SK-MEL-2 > 100 µM | K562 > 100 µM | UO-31 > 100 µM | SW-620 > 100 µM | SF-539 > 100 µM

CN(CCS(=O)(=O)N1C(=O)C2CCCN2C(=O)[C@@H]1Cc1ccccc1)C(=O)OCc1ccccc1 (stereo partly drawn)
inactive: ACHN 28.3 µM | KM12 48.2 µM | SK-MEL-5 25.8 µM | UACC-257 69 µM | RXF 393 28.6 µM | SF-268 61.1 µM | M19-MEL 62.1 µM | HOP-62 > 100 µM | K562 33.4 µM | UO-31 31.8 µM | SW-620 > 100 µM | OVCAR-5 > 100 µM | HOP-92 26.2 µM | SF-539 > 100 µM

Cc1cc(N(CCC#N)CCC#N)ccc1CC1N=C(c2ccccc2)OC1=O (stereo not drawn)
inactive: ACHN > 100 µM | KM12 > 100 µM | SK-MEL-5 > 100 µM | UACC-257 > 100 µM | SF-268 > 100 µM | M19-MEL > 100 µM | HOP-62 > 100 µM | SK-MEL-2 > 100 µM | K562 > 100 µM | UO-31 > 100 µM | SW-620 > 100 µM | OVCAR-5 > 100 µM | HOP-92 > 100 µM | SF-539 > 100 µM
